What all share (format): in vivo
Details in all cases: ten days after application

In assay [1] the test system is Setaria. Description: Example B1: post-emergent application of herbicide of formula I with/without safener, greenhouse, Setaria.
Assay [2] has as its system Emex. Put plainly: Example B1: post-emergent application of herbicide of formula I with/without safener, greenhouse, Emex.
Assay [3] has as its system Raphanus. Description: Example B2: post-emergent application of herbicide of formula I with/without safener, greenhouse, Raphanus.
In assay [4] the test system is Wheat. Put plainly: Example B1: post-emergent application of herbicide of formula I with/without safener, greenhouse, wheat. How it is done:
Post-emergent Applications of Mixtures of a Herbicide of Formula I with a Safener of Formulae IIa to IIq to Cereals
Under greenhouse conditions, wheat is grown in plastic pots to the 2.5-leaf stage. In this stage, both the herbicide of formula I alone and the mixture of the herbicide with a safener of formulae IIa to IIq are applied to the test plants. The test substances (Formulation Examples F3 a) and b)) are applied as aqueous suspension with 500 l water/ha. Ten days after the application, the results are evaluated on a percent scale.

Assay [5] relates to Raphanus. Description: Example B3: post-emergent application of herbicide of formula I with/without safener, greenhouse, Raphanus.
Assay [6] has as its system Chenopodium. Description: Example B3: post-emergent application of herbicide of formula I with/without safener, greenhouse, Chenopodium.
Assay [7] deals with Setaria. Description: Example B3: post-emergent application of herbicide of formula I with/without safener, greenhouse, Setaria.
For assay [8], the system named is Chenopodium. Put plainly: Example B2: post-emergent application of herbicide of formula I with/without safener, greenhouse, Chenopodium.
Assay [9] relates to Emex. Description: Example B3: post-emergent application of herbicide of formula I with/without safener, greenhouse, Emex.
Assay [10] relates to Setaria. Put plainly: Example B2: post-emergent application of herbicide of formula I with/without safener, greenhouse, Setaria.
Assay [11] concerns Durum wheat. Put plainly: Example B3: post-emergent application of herbicide of formula I with/without safener, greenhouse, durum wheat. How it is done: Post-emergent Applications of Mixtures of a Herbicide of Formula I with a Safener of Formulae IIa to IIq to Durum Wheat.
Under greenhouse conditions, durum wheat is grown in plastic pots to the 2.5-leaf stage. In this stage, both the herbicide of formula I alone and the mixture of the herbicide with a safener of formulae IIa to IIq are applied to the test plants. The test substances (Formulation Examples F3 a) and b)) are applied as aqueous suspension with 500 l water/ha. Ten days after the application, the results are evaluated on a percent scale.

Assay [12] concerns Chenopodium. Put plainly: Example B1: post-emergent application of herbicide of formula I with/without safener, greenhouse, Chenopodium.
Assay [13] has as its system Emex. Put plainly: Example B2: post-emergent application of herbicide of formula I with/without safener, greenhouse, Emex.
In assay [14] the test system is Barley. Put plainly: Example B2: post-emergent application of herbicide of formula I with/without safener, greenhouse, barley. The procedure:
Post-emergent Applications of Mixtures of a Herbicide of Formula I with a Safener of Formulae IIa to IIq to barley
Under greenhouse conditions, barley is grown in plastic pots to the 2.5-leaf stage. In this stage, both the herbicide of formula I alone and the mixture of the herbicide with a safener of formulae IIa to IIq are applied to the test plants. The test substances (Formulation Examples F3 a) and b)) are applied as aqueous suspension with 500 l water/ha. Ten days after the application, the results are evaluated on a percent scale.

In assay [15] the test system is Raphanus. Description: Example B1: post-emergent application of herbicide of formula I with/without safener, greenhouse, Raphanus.
Setting [16] is: Herbicide of formula 1 alone 15 g/ha.
[17] abbreviates: Herbicide of formula 1 alone 60 g/ha.
[18] abbreviates: Herbicide of formula 1 alone 250 g/ha.
The mark [19] stands for this setting: Herbicide of formula 1 15 g/ha + safener 4 g/ha.
Setting [20] is: Herbicide of formula 1 60 g/ha + safener 15 g/ha.
Setting [21] is: Herbicide of formula 1 250 g/ha + safener 60 g/ha.

Values joined by “and” are separate entries in the source; they are usually repeats but may differ in a detail not shown here. Equal entries are not always repeated.

With `COc1nn(C(=O)NS(=O)(=O)c2ccccc2OC(F)(F)F)c(=O)n1C` [Herbicide of formula 1], the “herbicidal effect on Setaria, percent scale” value turned out to be 70% in [1] (setting [16]); 80% in assay [1] (setting [17]); 80% in assay [7] (setting [18]); 70% in [10] (setting [16]); 80% in [10] (setting [17]). Further, the “herbicidal effect on Emex, percent scale” value is listed as 80% in assay [2] (setting [16]); 90% in assay [2] (setting [17]); 90% in assay [9] (setting [18]); 80% in assay [13] (setting [16]); 90% in assay [13] (setting [17]). Also, the “herbicidal effect on Raphanus, percent scale” value was found to be 80% in assay [3] (setting [16]); 80% in assay [3] (setting [17]); 90% in assay [5] (setting [18]); 80% in assay [15] (setting [16]); 80% in assay [15] (setting [17]). For the same molecule, the “damage to Wheat, percent scale” value in assay [4] (setting [16]) came out at 10%; in assay [4] (setting [17]), 20%. The “herbicidal effect on Chenopodium, percent scale” value is 90% in [6] (setting [18]); 90% in [8] (setting [16]); 90% in assay [8] (setting [17]); 90% and 80% in assay [12] (setting [16]); 90% in [12] (setting [17]). In addition, the “damage to Durum wheat, percent scale” value in assay [11] (setting [18]) turned out to be 30%. The “damage to Barley, percent scale” value came out at 30% in assay [14] (setting [16]) and 40% in assay [14] (setting [17]).

Take `CCCCCC(C)OC(=O)COc1ccc(Cl)c2cccnc12` (stereo not shown) [Safener no. 1,01]: the “herbicidal effect on Setaria, percent scale” value in [1] (setting [19]) is on record as 70%. Also, in [2] (setting [19]), the “herbicidal effect on Emex, percent scale” value is 90%. In [4] (setting [19]), the “damage to Wheat, percent scale” value was determined as 5%. In assay [12] (setting [19]), the “herbicidal effect on Chenopodium, percent scale” value was found to be 90%. Also, the “herbicidal effect on Raphanus, percent scale” value in assay [15] (setting [19]) came to 80%.

Take `COC(=O)c1cc(-c2ccccc2)n(-c2ccccc2Cl)n1` [Safener no. 2,01]: the “herbicidal effect on Raphanus, percent scale” value in assay [3] (setting [19]), in assay [3] (setting [20]) and in assay [5] (setting [21]) was 80% throughout. The “herbicidal effect on Chenopodium, percent scale” value in assay [6] (setting [21]) stood at 95%; in assay [8] (setting [19]) it was 90%; in [8] (setting [20]), 90%. In addition, the “herbicidal effect on Setaria, percent scale” value is on record as 80% in [7] (setting [21]), 70% in [10] (setting [19]) and 70% in assay [10] (setting [20]). The “herbicidal effect on Emex, percent scale” value in assay [9] (setting [21]), in assay [13] (setting [19]) and in assay [13] (setting [20]) was 90% throughout. For the same molecule, in assay [11] (setting [21]), the “damage to Durum wheat, percent scale” value is recorded as 10%. Moreover, the “damage to Barley, percent scale” value in assay [14] (setting [19]) was 0%; in [14] (setting [20]), 10%.

With `CCOC(=O)c1nc(C(Cl)(Cl)Cl)n(-c2ccc(Cl)cc2Cl)n1` [Safener no. 2,05], the “herbicidal effect on Raphanus, percent scale” value in [3] (setting [20]) turned out to be 90%. For the same molecule, the “herbicidal effect on Chenopodium, percent scale” value in assay [8] (setting [20]) was 90%. In addition, the “herbicidal effect on Setaria, percent scale” value in assay [10] (setting [20]) was 80%. Moreover, in assay [13] (setting [20]), the “herbicidal effect on Emex, percent scale” value came out at 90%. Moreover, the “damage to Barley, percent scale” value in assay [14] (setting [20]) is recorded as 30%.

For the molecule `CCOC(=O)C1=NN(c2ccc(Cl)cc2Cl)C(C)(C(=O)OCC)C1` (stereo not shown) [Safener no. 3,03], the “herbicidal effect on Setaria, percent scale” value was 70% in assay [1] (setting [19]) and 80% in assay [10] (setting [20]). Moreover, the “herbicidal effect on Emex, percent scale” value in [2] (setting [19]) and in assay [13] (setting [20]) was 90% each time. The “herbicidal effect on Raphanus, percent scale” value in [3] (setting [20]) and in [15] (setting [19]) was 80% each time. The “damage to Wheat, percent scale” value in assay [4] (setting [19]) is 5%. Moreover, the “herbicidal effect on Chenopodium, percent scale” value in assay [8] (setting [20]) stood at 80%; in assay [12] (setting [19]) it was 90%. For the same molecule, in assay [14] (setting [20]), the “damage to Barley, percent scale” value is 30%.

For `FC(F)(F)C(=NOCC1OCCO1)c1ccc(Cl)cc1` [Safener no. 6.02], the “herbicidal effect on Setaria, percent scale” value in [1] (setting [20]) and in assay [10] (setting [20]) was 80% in each case. In addition, the “herbicidal effect on Emex, percent scale” value in assay [2] (setting [20]) and in assay [13] (setting [20]) was 90% throughout. The “herbicidal effect on Raphanus, percent scale” value in assay [3] (setting [20]) and in [15] (setting [20]) was 80% throughout. For the same molecule, the “damage to Wheat, percent scale” value in assay [4] (setting [20]) was 10%. Also, the “herbicidal effect on Chenopodium, percent scale” value in assay [8] (setting [20]) and in assay [12] (setting [20]) was 80% each time. Moreover, in assay [14] (setting [20]), the “damage to Barley, percent scale” value is 30%.
